Test results reported in PubChem BioAssay (NCI).
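Cells were grown in 96-well plates and exposed to each compound for 48 hours at five concentrations; endpoints were interpolated linearly between bracketing concentrations, or set to the highest concentration if not reached. At the TGI there is no net growth.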

Columns and labels:
Assay in all cases: NCI tumour cell line growth inhibition, 48 h
[1] = test system: SNB-75 CNS
[2] = test system: 786-0 renal
[3] = test system: SNB-78 CNS
[4] = test system: SN12C renal
[5] = test system: DMS 273 small cell lung
[6] = test system: HCT-116 colon
[7] = test system: UO-31 renal
[8] = test system: MOLT-4 leukemia
[9] = test system: NCI-H226 lung
[10] = test system: M19-MEL melanoma
[11] = test system: SF-268 CNS
[12] = test system: DMS 114 small cell lung
[13] = test system: CAKI-1 renal
[14] = test system: MALME-3M melanoma
[15] = test system: KM20L2 colon
[16] = test system: HCC-2998 colon
[17] = test system: UACC-62 melanoma
[18] = test system: A549 NSCLC
[19] = test system: IGROV1 ovarian
[20] = test system: TK-10 renal
[21] = test system: COLO 205 colon
[22] = test system: RPMI-8226 leukemia
[23] = test system: HT29 colon
[24] = test system: UACC-257 melanoma
[25] = test system: HOP-18 NSCLC
[26] = test system: SK-OV-3 ovarian
[27] = test system: RXF 393 renal
[28] = test system: LOX IMVI melanoma
[29] = test system: NCI-H23 lung
[30] = test system: SK-MEL-2 melanoma
[31] = test system: OVCAR-5 ovarian
[32] = test system: OVCAR-3 ovarian
[33] = test system: NCI-H522 lung
[34] = test system: ACHN renal
[35] = test system: K-562 leukemia
[36] = test system: OVCAR-4 ovarian
[37] = test system: A498 renal
[38] = test system: NCI-H460 lung
[39] = test system: CCRF-CEM leukemia
[40] = test system: SK-MEL-28 melanoma
[41] = test system: OVCAR-8 ovarian
[42] = test system: HOP-92 NSCLC
[43] = test system: DLD-1 colon
[44] = test system: HCT-15 colon
[45] = test system: SW-620 colon
[46] = test system: M14 melanoma
[47] = test system: LXFL 529 NSCLC
[48] = test system: U251 CNS
[49] = test system: HOP-62 NSCLC
[50] = test system: HL-60(TB) leukemia
[51] = test system: KM12 colon
[52] = test system: SF-539 CNS
[53] = test system: SK-MEL-5 melanoma
[54] = test system: XF 498 CNS
[55] = test system: SR leukemia
[56] = test system: SNB-19 CNS
[57] = test system: EKVX NSCLC
[58] = test system: SF-295 CNS

SMILES: CCOC(=O)C1=C(C)N(NC(=O)Nc2ccccc2)C2(N)N(NC(=O)Nc3ccccc3)C(C)=C(C(=O)OCC)C12C#N (configuration not stated)
- TGI [1]: 36.6 µM
- TGI [2]: 32.4 µM
- TGI [3]: 37.6 µM
- TGI [4]: 33 µM
- TGI [5]: 31.3 µM
- TGI [6]: 31.2 µM
- TGI [7]: > 100 µM
- TGI [8]: 56.8 µM
- TGI [9]: 36.1 µM
- TGI [10]: 31.6 µM
- TGI [11]: 42.8 µM
- TGI [12]: 32.9 µM
- TGI [13]: 40.1 µM
- TGI [14]: 30.6 µM
- TGI [15]: 33.4 µM
- TGI [16]: 33.9 µM
- TGI [17]: 32.2 µM
- TGI [18]: > 100 µM
- TGI [19]: 36.6 µM
- TGI [20]: 49.3 µM
- TGI [21]: 32.6 µM
- TGI [22]: 50.5 µM
- TGI [23]: 38.1 µM
- TGI [24]: 38.5 µM
- TGI [25]: 34.3 µM
- TGI [26]: 52.1 µM
- TGI [27]: 27.7 µM
- TGI [28]: 34 µM
- TGI [29]: 43.9 µM
- TGI [30]: 30.2 µM
- TGI [31]: 32.4 µM
- TGI [32]: 32.2 µM
- TGI [33]: 33.1 µM
- TGI [34]: 51.4 µM
- TGI [35]: 48.2 µM
- TGI [36]: 31.5 µM
- TGI [37]: 45 µM
- TGI [38]: 33.1 µM
- TGI [39]: 71.9 µM
- TGI [40]: 32.1 µM
- TGI [41]: 33.4 µM
- TGI [42]: 39.4 µM
- TGI [43]: 34.1 µM
- TGI [44]: 37.1 µM
- TGI [45]: 36.2 µM
- TGI [46]: 34.6 µM
- TGI [47]: 32.6 µM
- TGI [48]: 32.3 µM

SMILES: Cc1cc2c3ccccc3n3c2c2c1OC1(C)CCC(C2C1)C3(C)C (configuration not stated)
- TGI [2]: > 25 µM
- TGI [3]: > 25 µM
- TGI [4]: > 25 µM
- TGI [5]: > 25 µM
- TGI [6]: > 25 µM
- TGI [7]: > 25 µM
- TGI [8]: > 25 µM
- TGI [9]: > 25 µM
- TGI [10]: > 25 µM
- TGI [11]: > 25 µM
- TGI [12]: > 25 µM
- TGI [14]: > 25 µM
- TGI [49]: > 25 µM
- TGI [50]: > 25 µM
- TGI [15]: > 25 µM
- TGI [16]: > 25 µM
- TGI [17]: > 25 µM
- TGI [18]: > 25 µM
- TGI [19]: > 25 µM
- TGI [20]: > 25 µM
- TGI [21]: > 25 µM
- TGI [22]: > 25 µM
- TGI [23]: > 25 µM
- TGI [26]: > 25 µM
- TGI [28]: > 25 µM
- TGI [30]: > 25 µM
- TGI [51]: > 25 µM
- TGI [31]: > 25 µM
- TGI [32]: > 25 µM
- TGI [33]: > 25 µM
- TGI [52]: > 25 µM
- TGI [53]: > 25 µM
- TGI [34]: > 25 µM
- TGI [35]: > 25 µM
- TGI [36]: > 25 µM
- TGI [38]: > 25 µM
- TGI [54]: > 25 µM
- TGI [39]: > 25 µM
- TGI [40]: > 25 µM
- TGI [41]: > 25 µM
- TGI [42]: > 25 µM
- TGI [43]: > 25 µM
- TGI [44]: > 25 µM
- TGI [45]: > 25 µM
- TGI [46]: > 25 µM
- TGI [47]: > 25 µM
- TGI [55]: > 25 µM
- TGI [56]: > 25 µM
- TGI [48]: > 25 µM

SMILES: CC1=Nc2ccccc2S/C1=C1/C=NC(=NC#N)N=C1C(=O)Nc1cccc(Cl)c1
- TGI [1]: > 100 µM
- TGI [2]: > 100 µM
- TGI [3]: > 100 µM
- TGI [4]: > 100 µM
- TGI [5]: > 100 µM
- TGI [57]: > 100 µM
- TGI [6]: > 100 µM
- TGI [7]: > 100 µM
- TGI [8]: > 100 µM
- TGI [9]: > 100 µM
- TGI [10]: > 100 µM
- TGI [11]: > 100 µM
- TGI [12]: > 100 µM
- TGI [13]: > 100 µM
- TGI [14]: > 100 µM
- TGI [49]: > 100 µM
- TGI [15]: > 100 µM
- TGI [16]: > 100 µM
- TGI [17]: > 100 µM
- TGI [18]: > 100 µM
- TGI [19]: > 100 µM
- TGI [20]: > 100 µM
- TGI [21]: > 100 µM
- TGI [22]: > 100 µM
- TGI [23]: > 100 µM
- TGI [24]: > 100 µM
- TGI [25]: > 100 µM
- TGI [26]: > 100 µM
- TGI [27]: > 100 µM
- TGI [28]: > 100 µM
- TGI [29]: > 100 µM
- TGI [30]: > 100 µM
- TGI [51]: > 100 µM
- TGI [31]: > 100 µM
- TGI [58]: > 100 µM
- TGI [32]: > 100 µM
- TGI [33]: > 100 µM
- TGI [52]: > 100 µM
- TGI [53]: > 100 µM
- TGI [34]: > 100 µM
- TGI [35]: > 100 µM
- TGI [36]: > 100 µM
- TGI [37]: > 100 µM
- TGI [38]: > 100 µM
- TGI [39]: > 100 µM
- TGI [40]: > 100 µM
- TGI [41]: > 100 µM
- TGI [43]: > 100 µM
- TGI [44]: > 100 µM
- TGI [45]: > 100 µM
- TGI [46]: > 100 µM
- TGI [47]: > 100 µM
- TGI [55]: > 100 µM
- TGI [56]: > 100 µM
- TGI [48]: > 100 µM

SMILES: O=C(CC(C(=O)c1ccsc1)c1cccs1)c1cccs1 (configuration not stated)
- TGI [1]: > 100 µM
- TGI [2]: > 100 µM
- TGI [3]: > 100 µM
- TGI [4]: > 100 µM
- TGI [5]: > 100 µM
- TGI [57]: > 100 µM
- TGI [6]: > 100 µM
- TGI [7]: 92.7 µM
- TGI [8]: > 100 µM
- TGI [9]: > 100 µM
- TGI [10]: > 100 µM
- TGI [11]: > 100 µM
- TGI [12]: > 100 µM
- TGI [14]: > 100 µM
- TGI [49]: > 100 µM
- TGI [50]: > 100 µM
- TGI [15]: > 100 µM
- TGI [16]: > 100 µM
- TGI [17]: > 100 µM
- TGI [18]: > 100 µM
- TGI [19]: > 100 µM
- TGI [20]: > 100 µM
- TGI [21]: > 100 µM
- TGI [22]: > 100 µM
- TGI [23]: > 100 µM
- TGI [24]: > 100 µM
- TGI [26]: > 100 µM
- TGI [27]: > 100 µM
- TGI [28]: > 100 µM
- TGI [29]: > 100 µM
- TGI [30]: > 100 µM
- TGI [31]: > 100 µM
- TGI [58]: > 100 µM
- TGI [32]: > 100 µM
- TGI [33]: > 100 µM
- TGI [52]: > 100 µM
- TGI [53]: 85.6 µM
- TGI [34]: > 100 µM
- TGI [35]: > 100 µM
- TGI [36]: > 100 µM
- TGI [37]: > 100 µM
- TGI [38]: > 100 µM
- TGI [54]: > 100 µM
- TGI [39]: > 100 µM
- TGI [40]: > 100 µM
- TGI [41]: > 100 µM
- TGI [42]: > 100 µM
- TGI [43]: > 100 µM
- TGI [44]: > 100 µM
- TGI [45]: > 100 µM
- TGI [46]: > 100 µM
- TGI [47]: > 100 µM
- TGI [55]: > 100 µM
- TGI [56]: > 100 µM
- TGI [48]: > 100 µM
